# Source: PubChem BioAssay AID1259411 (Chemical Carcinogenesis Research Information System (CCRIS), 2018)
# Active and inactive are the calls of the source. The rule behind the calls is not given here. Where a SMILES comes first, the peptide text is derived from it.
# Test system: rodent carcinogenicity bioassays, tumor incidence
# Test: CCRIS carcinogenicity studies
# How it was run: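 Archive of carcinogenicity, mutagenicity, tumor promotion and tumor inhibition results drawn from journals, NCI reports and other sources, expert-reviewed; covers 1985-2011 and is no longer updated.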
structure (smiles),measurement,setting,value
NCl,carcinogen call,"Species: MOUSE, Strain/Sex: B6C3F1/FEMALE, Route: ORAL, Dose: 0, 50, 100, 200 PPM IN BUFFERED, CHARCOAL-FILTERED, DEIONIZED WATER FOR 104 WK (STUDY DURATION: 2 YR), Dose: 0, 50, 100, 200 PPM IN BUFFERED, CHARCOAL-FILTERED, DEIONIZED WATER FOR 104 WK (STUDY DURATION: 2 YR)",inactive; negative
same,carcinogen call,"Species: MOUSE, Strain/Sex: B6C3F1/MALE, Route: ORAL, Dose: 0, 50, 100, 200 PPM IN BUFFERED, CHARCOAL-FILTERED, DEIONIZED WATER FOR 104 WK (STUDY DURATION: 2 YR), Dose: 0, 50, 100, 200 PPM IN BUFFERED, CHARCOAL-FILTERED, DEIONIZED WATER FOR 104 WK (STUDY DURATION: 2 YR)",inactive; negative
same,carcinogen call,"Species: RAT, Strain/Sex: F344/MALE, Route: ORAL, Dose: 0, 50, 100, 200 PPM IN BUFFERED, CHARCOAL-FILTERED, DEIONIZED WATER FOR 103 WK (STUDY DURATION: 2 YR), Dose: 0, 50, 100, 200 PPM IN BUFFERED, CHARCOAL-FILTERED, DEIONIZED WATER FOR 103 WK (STUDY DURATION: 2 YR)",inactive; negative
COC(=O)[C@H](Cc1ccccc1)NC(=O)[C@@H](N)CC(=O)O (H-Asp-Phe-OMe),carcinogen call,"Species: MOUSE, Strain/Sex: SWISS/FEMALE, Route: INTRAVESICULAR, Dose: 0, 4-4.4 MG IN CHOLESTEROL PELLET (STUDY DURATION: 26 WK)",inactive; negative
same,carcinogen call,"Species: MOUSE, Strain/Sex: SWISS/FEMALE, Route: INTRAVESICULAR, Dose: 0, 4-4.4 MG IN CHOLESTEROL PELLET (STUDY DURATION: 56 WK)",inactive; negative
O=S(=O)(O)NC1CCCCC1,carcinogen call,"Species: MONKEY, Strain/Sex: CYNOMOLGUS, RHESUS, AFRICAN GREEN/MALE, FEMALE, Route: ORAL, Dose: 0, 100, 500 MG/KG IN DIET FOR 24 YR (STUDY DURATION: 24 YR), Dose: 0, 100, 500 MG/KG IN DIET FOR 24 YR (STUDY DURATION: 24 YR)",inactive; negative
same,carcinogen call,"Species: RAT, Strain/Sex: ALBINO/MALE,FEMALE, Route: SUBCUTANEOUS, Dose: 5, 15% IN AQ SOLN 3/WK FOR 85 OR 107 WK, Tumor Site: Type of Lesion: INJECTION SITE: FIBROSARCOMA",active; positive
same,carcinogen call,"Species: RAT, Strain/Sex: SPRAGUE-DAWLEY/MALE,FEMALE, Route: ORAL, Dose: 2, 5% IN DIET PRENATALLY AND FOR LIFE",inactive; negative
c1ccc2c(c1)c1cccc3ccc4cccc2c4c31,carcinogen call,"Species: RAT, Strain/Sex: OSBORNE-MENDEL/FEMALE, Route: LUNG IMPLANT, Dose: 0, 0.2, 1.0, 5.0 MG IN BEESWAX/TRIOCTANOIN (STUDY DURATION: LIFETIME), Dose: 0, 0.2, 1.0, 5.0 MG IN BEESWAX/TRIOCTANOIN (STUDY DURATION: LIFETIME)",inactive; negative
OCc1ccccc1,carcinogen call,"Species: MOUSE, Strain/Sex: B6C3F1/F, Route: GAVAGE, Dose: 0, 100, 200 MG/KG IN CORN OIL 5D/WK FOR 103 WK (STUDY DURATION: 106 WK), Dose: 0, 100, 200 MG/KG IN CORN OIL 5D/WK FOR 103 WK (STUDY DURATION: 106 WK)",inactive; negative
same,carcinogen call,"Species: MOUSE, Strain/Sex: B6C3F1/M, Route: GAVAGE, Dose: 0, 100, 200 MG/KG IN CORN OIL 5D/WK FOR 103 WK (STUDY DURATION: 106 WK), Dose: 0, 100, 200 MG/KG IN CORN OIL 5D/WK FOR 103 WK (STUDY DURATION: 106 WK)",inactive; negative
same,carcinogen call,"Species: RAT, Strain/Sex: F344/F, Route: GAVAGE, Dose: 0, 200, 400 MG/KG IN CORN OIL 5D/WK FOR 103 WK (STUDY DURATION: 105 WK), Dose: 0, 200, 400 MG/KG IN CORN OIL 5D/WK FOR 103 WK (STUDY DURATION: 105 WK)",inactive; negative
same,carcinogen call,"Species: RAT, Strain/Sex: F344/M, Route: GAVAGE, Dose: 0, 200, 400 MG/KG IN CORN OIL 5D/WK FOR 103 WK (STUDY DURATION: 105 WK), Dose: 0, 200, 400 MG/KG IN CORN OIL 5D/WK FOR 103 WK (STUDY DURATION: 105 WK)",inactive; negative
CN1C(=O)C(O)N=C(c2ccccc2)c2cc(Cl)ccc21 (stereo unspecified),carcinogen call,"Species: MOUSE, Strain/Sex: CD-1/FEMALE, Route: ORAL, Dose: 0, 10, 80, 160 MG/KG/D IN DIET FOR 18 MO (STUDY DURATION: 18 MO), Dose: 0, 10, 80, 160 MG/KG/D IN DIET FOR 18 MO (STUDY DURATION: 18 MO)",inactive; negative
same,carcinogen call,"Species: MOUSE, Strain/Sex: CD-1/MALE, Route: ORAL, Dose: 0, 10, 80, 160 MG/KG/D IN DIET FOR 18 MO (STUDY DURATION: 18 MO), Dose: 0, 10, 80, 160 MG/KG/D IN DIET FOR 18 MO (STUDY DURATION: 18 MO)",inactive; negative
same,carcinogen call,"Species: RAT, Strain/Sex: STRAIN-CD/FEMALE, Route: ORAL, Dose: 0, 10, 40, 160 MG/KG/D IN DIET FOR 2 YR (STUDY DURATION: 2 YR), Dose: 0, 10, 40, 160 MG/KG/D IN DIET FOR 2 YR (STUDY DURATION: 2 YR)",inactive; negative
same,carcinogen call,"Species: RAT, Strain/Sex: STRAIN-CD/MALE, Route: ORAL, Dose: 0, 10, 40, 160 MG/KG/D IN DIET FOR 2 YR (STUDY DURATION: 2 YR), Dose: 0, 10, 40, 160 MG/KG/D IN DIET FOR 2 YR (STUDY DURATION: 2 YR)",inactive; negative
Cc1ccccc1N,carcinogen call,"Species: MOUSE, Strain/Sex: B6C3F1/FEMALE, Route: ORAL, Dose: 0, 1000, 3000 PPM IN DIET FOR 103 WK, Dose: 0, 1000, 3000 PPM IN DIET FOR 103 WK, Tumor Site: Type of Lesion: LIVER: HEPATOCELLULAR CARCINOMA OR HEPATOCELLULAR ADENOMA",active; positive
same,carcinogen call,"Species: MOUSE, Strain/Sex: B6C3F1/MALE, Route: ORAL, Dose: 0, 1000, 3000 PPM IN DIET FOR 102-103 WK, Dose: 0, 1000, 3000 PPM IN DIET FOR 102-103 WK, Tumor Site: Type of Lesion: BLOOD VESSELS: HEMANGIOMA OR HEMANGIOSARCOMA",active; positive
same,carcinogen call,"Species: MOUSE, Strain/Sex: CD-1/MALE,FEMALE, Route: ORAL, Dose: 0, 16000, 32000 MG/KG FOR 3 MO, THEN 0, 8000, 16000 MG/KG FOR 15 MO, Dose: 0, 16000, 32000 MG/KG FOR 3 MO, THEN 0, 8000, 16000 MG/KG FOR 15 MO, Tumor Site: Type of Lesion: BLOOD VESSELS: HEMANGIOMA, HEMANGIOSARCOMA",active; positive
same,carcinogen call,"Species: RAT, Strain/Sex: CD-1/MALE, Route: ORAL, Dose: 0, 8000, 16000 MG/KG FOR 3 MO, THEN 0, 4000, 8000 MG/KG FOR 15 MO, Dose: 0, 8000, 16000 MG/KG FOR 3 MO, THEN 0, 4000, 8000 MG/KG FOR 15 MO, Tumor Site: Type of Lesion: INTEGUMENTARY SYSTEM (SUBCUTANEOUS TISSUE): FIBROMA, FIBROSARCOMA",active; positive
same,carcinogen call,"Species: RAT, Strain/Sex: F344/FEMALE, Route: ORAL, Dose: 0, 3000, 6000, PPM IN DIET FOR 104 WK (STUDY DURATION: 104 WK), Dose: 0, 3000, 6000, PPM IN DIET FOR 104 WK (STUDY DURATION: 104 WK), Tumor Site: Type of Lesion: SPLEEN OR PERITONEUM: SARCOMA",active; positive
same,carcinogen call,"Species: RAT, Strain/Sex: F344/FEMALE, Route: ORAL, Dose: 0, 3000, 6000 PPM IN DIET FOR 104 WK, Dose: 0, 3000, 6000 PPM IN DIET FOR 104 WK, Tumor Site: Type of Lesion: SPLEEN: ANGIOSARCOMA, SARCOMA (NOS) OR ANGIOSARCOMA OR OSTEOSARCOMA, URINARY BLADDER: TRANSITIONAL CELL CARCINOMA, TRANS",active; positive
same,carcinogen call,"Species: RAT, Strain/Sex: F344/MALE, Route: ORAL, Dose: 0, 3000, 6000 PPM IN DIET FOR 101-104 WK, Dose: 0, 3000, 6000 PPM IN DIET FOR 101-104 WK, Tumor Site: Type of Lesion: INTEGUMENTARY SYSTEM (SUBCUTANEOUS TISSUE): FIBROMA, SPLEEN: FIBROMA, ANGIOSARCOMA, MULTIPLE ORGANS OR TUNICA VAGINALIS:, Tumor Site: Type of Lesion: INTEGUMENTARY SYSTEM (SUBCUTANEOUS TISSUE): FIBROMA, SPLEEN: FIBROMA, ANGIOSARCOMA, MULTIPLE ORGANS OR TUNICA VAGINALIS:",active; positive
same,carcinogen call,"Species: RAT, Strain/Sex: F344/MALE, Route: ORAL, Dose: 0, 3000, 6000 PPM IN DIET FOR 104 WK (STUDY DURATION: 104 WK), Dose: 0, 3000, 6000 PPM IN DIET FOR 104 WK (STUDY DURATION: 104 WK), Tumor Site: Type of Lesion: SPLEEN OR PERITONEUM: SARCOMA",active; positive
same,carcinogen call,"Species: RAT, Strain/Sex: F344/MALE, Route: ORAL, Dose: 4.0 G/KG IN DIET FOR 72 WK (TOTAL DOSE 0.22 MOL/RAT), Tumor Site: Type of Lesion: SPLEEN: FIBROMA, INTEGUMENTARY SYSTEM (SKIN): FIBROMA, MAMMARY GLAND: FIBROADENOMA, ADENOCARCINOMA, PERITONEAL CAVITY: M, Tumor Site: Type of Lesion: SPLEEN: FIBROMA, INTEGUMENTARY SYSTEM (SKIN): FIBROMA, MAMMARY GLAND: FIBROADENOMA, ADENOCARCINOMA, PERITONEAL CAVITY: M",active; positive
